Laboratory results reported in patent publication US20090137549A1, “Novel compounds useful for the treatment of degenerative & inflamatory diseases” (priority 2006, published 2009).

What follows are molecules tested against PDE1A (Homo sapiens, UniProt P54750) (assay: PDE1A dose response, Cyclic Nucleotide Phosphodiesterase Assay Kit from Biomol (colorimetric)). Conditions: purified PDE1A enzyme, 100 μM cAMP.
Type: biochemical
Description: For the dose response and further screening, we used the Cyclic Nucleotide
Phosphodiesterase Assay Kit from Biomol, a colorimetric, non-radioactive assay. The basis for the assay is the cleavage of cAMP by PDE1A. The 5′AMP is further cleaved into the nucleoside and phosphate by the enzyme 5′-nucleotidase (catnr KI-307). The phosphate released due to enzymatic cleavage is quantified using BIOMOL GREEN™ reagent (catnr AK-111) in a modified Malachite Green assay^1,2. A PDE1A inhibitor will result in a decrease of the signal.
For the enzymatic reaction a mix of 25 μL with purified PDE1A enzyme, 100 μM cAMP, 5′Nucleotidase and the compound is made in a clear 384-plate. The reaction buffer is Tris 20 mM pH 7.4, 4 μg/mL calmodulin, 3 mM MgCl2, 1.5 mM CaCl2, 0.2 mg/mL BSA and 0.001% Brij-35. After an incubation of 45 minutes at 37° C., the reaction is stopped by the addition of 50 μL BIOMOL GREEN™ reagent. After 30 minutes incubation at room temperature, the readout is performed on the Envision (absorption at 615 nm).
All compounds are tested in duplicate starting from […] followed by a 1/3 serial dilution, 8 points (20 μM-6.67 μM-2.22 μM-740 nM-247 nM-82 nM-27 nM-9 nM) in a final concentration of 1% DMSO. As the positive dose response control compound Vardenafil is used. For the calculation of z′ and PIN values 10 μM Vardenafil is used as positive control (100% inhibition) and 1% DMSO as negative control (0% inhibition).
The following compounds have been or can be prepared according to the synthetic methods described above. For the purpose of Table 7 below, PDE1A activity of each compound, which can be determined using the assay methods described herein, is expressed as follows: […]

Row | IC50 | Structure (SMILES)
1 | 1 to 100 nM | O=C(NCc1ccc(F)cc1)N1CC(c2nc3c(cnn3C3CCCCC3)c(=O)[nH]2)C1 [Example 30, 3-(1-cyclohexyl-4-oxo-4,5-dihydro-1H-pyrazolo[3,4-d]pyrimidin-6-yl)-N-(4-fluorobenzyl)azetidine-1-carboxamide]
2 | 1 to 100 nM | O=C(NCc1ccccc1)N1CC(c2nc3c(cnn3C3CCCCC3)c(=O)[nH]2)C1 [Example 31, N-benzyl-3-(1-cyclohexyl-4-oxo-4,5-dihydro-1H-pyrazolo[3,4-d]pyrimidin-6-yl)azetidine-1-carboxamide]
3 | 1 to 100 nM | O=C(NC1CCCC1)N1CC(c2nc3c(cnn3C3CCCCC3)c(=O)[nH]2)C1 [Example 32, 3-(1-cyclohexyl-4-oxo-4,5-dihydro-1H-pyrazolo[3,4-d]pyrimidin-6-yl)-N-cyclopentylazetidine-1-carboxamide]
4 | 1 to 100 nM | N#Cc1ccc(NC(=O)N2CC(c3nc4c(cnn4C4CCCCC4)c(=O)[nH]3)C2)cc1 [Example 33, N-(4-cyanophenyl)-3-(1-cyclohexyl-4-oxo-4,5-dihydro-1H-pyrazolo[3,4-d]pyrimidin-6-yl)azetidine-1-carboxamide]
5 | 1 to 100 nM | CCCCNC(=O)N1CC(c2nc3c(cnn3C3CCCCC3)c(=O)[nH]2)C1 [Example 34, N-butyl-3-(1-cyclohexyl-4-oxo-4,5-dihydro-1H-pyrazolo[3,4-d]pyrimidin-6-yl)azetidine-1-carboxamide]
6 | 1 to 100 nM | O=C(Nc1ccc(C(F)(F)F)cc1)N1CC(c2nc3c(cnn3C3CCCCC3)c(=O)[nH]2)C1 [Example 35, 3-(1-cyclohexyl-4-oxo-4,5-dihydro-1H-pyrazolo[3,4-d]pyrimidin-6-yl)-N-(4-(trifluoromethyl)phenyl)azetidine-1-carboxamide]
7 | 1 to 100 nM | O=C(NCc1ccc(Cl)c(Cl)c1)N1CC(c2nc3c(cnn3C3CCCCC3)c(=O)[nH]2)C1 [Example 37, 3-(1-cyclohexyl-4-oxo-4,5-dihydro-1H-pyrazolo[3,4-d]pyrimidin-6-yl)-N-(3,4-dichlorobenzyl)azetidine-1-carboxamide]
8 | 1 to 100 nM | CC(C)(C)NC(=O)N1CC(c2nc3c(cnn3C3CCCCC3)c(=O)[nH]2)C1 [Example 38, N-tert-butyl-3-(1-cyclohexyl-4-oxo-4,5-dihydro-1H-pyrazolo[3,4-d]pyrimidin-6-yl)azetidine-1-carboxamide]
9 | 1 to 100 nM | Cc1nn(C2CCCCC2)c2nc(C3CN(C(=O)NCc4ccc(Cl)c(Cl)c4)C3)[nH]c(=O)c12 [Example 39, 3-(1-cyclohexyl-3-methyl-4-oxo-4,5-dihydro-1H-pyrazolo[3,4-d]pyrimidin-6-yl)-N-(3,4-dichlorobenzyl)azetidine-1-carboxamide]
10 | 1 to 100 nM | CS(=O)(=O)N1CCC(NC(=O)N2CC(c3nc4c(cnn4C4CCCCC4)c(=O)[nH]3)C2)CC1 [Example 40, 3-(1-cyclohexyl-4-oxo-4,5-dihydro-1H-pyrazolo[3,4-d]pyrimidin-6-yl)-N-(1-(methylsulfonyl)piperidin-4-yl)azetidine-1-carboxamide]
11 | 1 to 100 nM | CC(C)(C)OC(=O)N1CCC(NC(=O)N2CC(c3nc4c(cnn4C4CCCCC4)c(=O)[nH]3)C2)CC1 [Example 41, tert-butyl 4-(3-(1-cyclohexyl-4-oxo-4,5-dihydro-1H-pyrazolo[3,4-d]pyrimidin-6-yl)azetidine-1-carboxamido)piperidine-1-carboxylate]
12 | 1 to 100 nM | Cc1nn(C2CCCCC2)c2nc(C3CN(C(=O)N[C@@H](C)c4ccccc4)C3)[nH]c(=O)c12 [Example 42, (S)-3-(1-cyclohexyl-3-methyl-4-oxo-4,5-dihydro-1H-pyrazolo[3,4-d]pyrimidin-6-yl)-N-(1-phenylethyl)azetidine-1-carboxamide]
13 | 1 to 100 nM | O=C(NCCC(F)(F)F)N1CC(c2nc3c(cnn3C3CCCCC3)c(=O)[nH]2)C1 [Example 43, 3-(1-cyclohexyl-4-oxo-4,5-dihydro-1H-pyrazolo[3,4-d]pyrimidin-6-yl)-N-(3,3,3-trifluoropropyl)azetidine-1-carboxamide]
14 | 1 to 100 nM | COc1ccc(S(=O)(=O)N2CCCC(c3nc4c(cnn4C4CCCCC4)c(=O)[nH]3)C2)cc1OC (stereo not drawn) [Example 44, 1-cyclohexyl-6-(1-(3,4-dimethoxyphenylsulfonyl)piperidin-3-yl)-1H-pyrazolo[3,4-d]pyrimidin-4(5H)-one]
15 | 101 to 500 nM | CN(C)c1cccc(C(=O)N2CCCC(c3nc4c(cnn4C4CCCCC4)c(=O)[nH]3)C2)c1 (stereo not drawn) [Example 45, 1-cyclohexyl-6-(1-(3-(dimethylamino)benzoyl)piperidin-3-yl)-1H-pyrazolo[3,4-d]pyrimidin-4(5H)-one]
16 | 101 to 500 nM | COc1ccc(S(=O)(=O)N2CCCC(c3nc4c(cnn4-c4ccccc4)c(=O)[nH]3)C2)cc1 (stereo not drawn) [Example 46, 6-(1-(4-methoxyphenylsulfonyl)piperidin-3-yl)-1-phenyl-1H-pyrazolo[3,4-d]pyrimidin-4(5H)-one]
17 | 101 to 500 nM | O=C(NC1CCOCC1)N1CC(c2nc3c(cnn3C3CCCCC3)c(=O)[nH]2)C1 [Example 47, 3-(1-cyclohexyl-4-oxo-4,5-dihydro-1H-pyrazolo[3,4-d]pyrimidin-6-yl)-N-(tetrahydro-2H-pyran-4-yl)azetidine-1-carboxamide]
18 | 101 to 500 nM | COc1ccccc1C(=O)N1CCCC(c2nc3c(cnn3C3CCCCC3)c(=O)[nH]2)C1 (stereo not drawn) [Example 48, 1-cyclohexyl-6-(1-(2-methoxybenzoyl)piperidin-3-yl)-1H-pyrazolo[3,4-d]pyrimidin-4(5H)-one]
19 | 101 to 500 nM | O=C(c1cccc2c1OCO2)N1CCCC(c2nc3c(cnn3C3CCCCC3)c(=O)[nH]2)C1 (stereo not drawn) [Example 49, 6-(1-(benzo[d][1,3]dioxole-4-carbonyl)piperidin-3-yl)-1-cyclohexyl-1H-pyrazolo[3,4-d]pyrimidin-4(5H)-one]
20 | 101 to 500 nM | Cc1nn(-c2ccc(F)cc2)c2nc(C3CN(C(=O)NC4CCCCC4)C3)[nH]c(=O)c12 [Example 50, N-cyclohexyl-3-(1-(4-fluorophenyl)-3-methyl-4-oxo-4,5-dihydro-1H-pyrazolo[3,4-d]pyrimidin-6-yl)azetidine-1-carboxamide]
21 | 101 to 500 nM | COc1ccc(S(=O)(=O)N2CCCC(c3nc4c(cnn4C4CCCCC4)c(=O)[nH]3)C2)cc1 (stereo not drawn) [Example 51, 1-cyclohexyl-6-(1-(4-methoxyphenylsulfonyl)piperidin-3-yl)-1H-pyrazolo[3,4-d]pyrimidin-4(5H)-one]
22 | 101 to 500 nM | COc1cccc(C(=O)N2CC(c3nc4c(c(C)nn4C4CCCCC4)c(=O)[nH]3)C2)c1 [Example 52, 1-cyclohexyl-6-(1-(3-methoxybenzoyl)azetidin-3-yl)-3-methyl-1H-pyrazolo[3,4-d]pyrimidin-4(5H)-one]
23 | 101 to 500 nM | COc1cccc(C(=O)N2CCCC(c3nc4c(cnn4C4CCCCC4)c(=O)[nH]3)C2)c1 (stereo not drawn) [Example 53, 1-cyclohexyl-6-(1-(3-methoxybenzoyl)piperidin-3-yl)-1H-pyrazolo[3,4-d]pyrimidin-4(5H)-one]
24 | 101 to 500 nM | O=C(c1ccccc1OC(F)(F)F)N1CCCC(c2nc3c(cnn3C3CCCCC3)c(=O)[nH]2)C1 (stereo not drawn) [Example 54, 1-cyclohexyl-6-(1-(2-(trifluoromethoxy)benzoyl)piperidin-3-yl)-1H-pyrazolo[3,4-d]pyrimidin-4(5H)-one]
25 | 101 to 500 nM | CCCCS(=O)(=O)Nc1cccc(C(=O)N2CCCC(c3nc4c(c(C)nn4C4CCCCC4)c(=O)[nH]3)C2)c1 (stereo not drawn) [Example 55, N-(3-(3-(1-cyclohexyl-3-methyl-4-oxo-4,5-dihydro-1H-pyrazolo[3,4-d]pyrimidin-6-yl)piperidine-1-carbonyl)phenyl)butane-1-sulfonamide]
26 | 101 to 500 nM | COc1ccc(S(=O)(=O)N2CCCC(c3nc4c(c(C)nn4C4CCCCC4)c(=O)[nH]3)C2)cc1 (stereo not drawn) [Example 56, 1-cyclohexyl-6-(1-(4-methoxyphenylsulfonyl)piperidin-3-yl)-3-methyl-1H-pyrazolo[3,4-d]pyrimidin-4(5H)-one]
27 | 101 to 500 nM | COc1ccccc1C(=O)N1CCCC(c2nc3c(c(C)nn3C3CCCCC3)c(=O)[nH]2)C1 (stereo not drawn) [Example 57, 1-cyclohexyl-6-(1-(2-methoxybenzoyl)piperidin-3-yl)-3-methyl-1H-pyrazolo[3,4-d]pyrimidin-4(5H)-one]
28 | 101 to 500 nM | Cc1nn(C2CCCCC2)c2nc(C3CCCN(C(=O)c4cccc5c4OC(F)(F)O5)C3)[nH]c(=O)c12 (stereo not drawn) [Example 58, 1-cyclohexyl-6-(1-(2,2-difluorobenzo[d][1,3]dioxole-4-carbonyl)piperidin-3-yl)-3-methyl-1H-pyrazolo[3,4-d]pyrimidin-4(5H)-one]
29 | 101 to 500 nM | Cc1nn(C2CCCCC2)c2nc(C3CCCN(C(=O)c4ccc(N(C)C)cc4)C3)[nH]c(=O)c12 (stereo not drawn) [Example 59, 1-cyclohexyl-6-(1-(4-(dimethylamino)benzoyl)piperidin-3-yl)-3-methyl-1H-pyrazolo[3,4-d]pyrimidin-4(5H)-one]
30 | 101 to 500 nM | CN(C)c1ccc(C(=O)N2CCCC(c3nc4c(cnn4C4CCCCC4)c(=O)[nH]3)C2)cc1 (stereo not drawn) [Example 60, 1-cyclohexyl-6-(1-(4-(dimethylamino)benzoyl)piperidin-3-yl)-1H-pyrazolo[3,4-d]pyrimidin-4(5H)-one]
